Test [1] concerns PN 200-110 binding sites in the rat brain. The test can be described thus: Binding affinity for PN 200-110 (DHP) binding sites in the rat brain. The following applies: for Selectivity: Ki (Heart) relative to Ki (Brain), rat; for Ki: rat brain, PN 200-110 binding sites. From the text:
(§1) Binding Assays […] Can. Journ. Physiol. Pharmacol. 65, (1987) 1452. […] This manifests itself, for example, by comparison of the binding affinities for DHP (PN-200 110) binding sites in the rat brain and rat […]., Rutledge, A., Janis, […]., Can. Journ. Physiol. Pharmacol. 65 (1987), 1452].

The target of test [2] is T1, PN 200-110 binding sites in the rat heart (Rattus norvegicus, UniProt P22002).
T1 construct: from tissue; host or cells: rat heart
T1 sequence (P22002 whole entry, other chains not shown): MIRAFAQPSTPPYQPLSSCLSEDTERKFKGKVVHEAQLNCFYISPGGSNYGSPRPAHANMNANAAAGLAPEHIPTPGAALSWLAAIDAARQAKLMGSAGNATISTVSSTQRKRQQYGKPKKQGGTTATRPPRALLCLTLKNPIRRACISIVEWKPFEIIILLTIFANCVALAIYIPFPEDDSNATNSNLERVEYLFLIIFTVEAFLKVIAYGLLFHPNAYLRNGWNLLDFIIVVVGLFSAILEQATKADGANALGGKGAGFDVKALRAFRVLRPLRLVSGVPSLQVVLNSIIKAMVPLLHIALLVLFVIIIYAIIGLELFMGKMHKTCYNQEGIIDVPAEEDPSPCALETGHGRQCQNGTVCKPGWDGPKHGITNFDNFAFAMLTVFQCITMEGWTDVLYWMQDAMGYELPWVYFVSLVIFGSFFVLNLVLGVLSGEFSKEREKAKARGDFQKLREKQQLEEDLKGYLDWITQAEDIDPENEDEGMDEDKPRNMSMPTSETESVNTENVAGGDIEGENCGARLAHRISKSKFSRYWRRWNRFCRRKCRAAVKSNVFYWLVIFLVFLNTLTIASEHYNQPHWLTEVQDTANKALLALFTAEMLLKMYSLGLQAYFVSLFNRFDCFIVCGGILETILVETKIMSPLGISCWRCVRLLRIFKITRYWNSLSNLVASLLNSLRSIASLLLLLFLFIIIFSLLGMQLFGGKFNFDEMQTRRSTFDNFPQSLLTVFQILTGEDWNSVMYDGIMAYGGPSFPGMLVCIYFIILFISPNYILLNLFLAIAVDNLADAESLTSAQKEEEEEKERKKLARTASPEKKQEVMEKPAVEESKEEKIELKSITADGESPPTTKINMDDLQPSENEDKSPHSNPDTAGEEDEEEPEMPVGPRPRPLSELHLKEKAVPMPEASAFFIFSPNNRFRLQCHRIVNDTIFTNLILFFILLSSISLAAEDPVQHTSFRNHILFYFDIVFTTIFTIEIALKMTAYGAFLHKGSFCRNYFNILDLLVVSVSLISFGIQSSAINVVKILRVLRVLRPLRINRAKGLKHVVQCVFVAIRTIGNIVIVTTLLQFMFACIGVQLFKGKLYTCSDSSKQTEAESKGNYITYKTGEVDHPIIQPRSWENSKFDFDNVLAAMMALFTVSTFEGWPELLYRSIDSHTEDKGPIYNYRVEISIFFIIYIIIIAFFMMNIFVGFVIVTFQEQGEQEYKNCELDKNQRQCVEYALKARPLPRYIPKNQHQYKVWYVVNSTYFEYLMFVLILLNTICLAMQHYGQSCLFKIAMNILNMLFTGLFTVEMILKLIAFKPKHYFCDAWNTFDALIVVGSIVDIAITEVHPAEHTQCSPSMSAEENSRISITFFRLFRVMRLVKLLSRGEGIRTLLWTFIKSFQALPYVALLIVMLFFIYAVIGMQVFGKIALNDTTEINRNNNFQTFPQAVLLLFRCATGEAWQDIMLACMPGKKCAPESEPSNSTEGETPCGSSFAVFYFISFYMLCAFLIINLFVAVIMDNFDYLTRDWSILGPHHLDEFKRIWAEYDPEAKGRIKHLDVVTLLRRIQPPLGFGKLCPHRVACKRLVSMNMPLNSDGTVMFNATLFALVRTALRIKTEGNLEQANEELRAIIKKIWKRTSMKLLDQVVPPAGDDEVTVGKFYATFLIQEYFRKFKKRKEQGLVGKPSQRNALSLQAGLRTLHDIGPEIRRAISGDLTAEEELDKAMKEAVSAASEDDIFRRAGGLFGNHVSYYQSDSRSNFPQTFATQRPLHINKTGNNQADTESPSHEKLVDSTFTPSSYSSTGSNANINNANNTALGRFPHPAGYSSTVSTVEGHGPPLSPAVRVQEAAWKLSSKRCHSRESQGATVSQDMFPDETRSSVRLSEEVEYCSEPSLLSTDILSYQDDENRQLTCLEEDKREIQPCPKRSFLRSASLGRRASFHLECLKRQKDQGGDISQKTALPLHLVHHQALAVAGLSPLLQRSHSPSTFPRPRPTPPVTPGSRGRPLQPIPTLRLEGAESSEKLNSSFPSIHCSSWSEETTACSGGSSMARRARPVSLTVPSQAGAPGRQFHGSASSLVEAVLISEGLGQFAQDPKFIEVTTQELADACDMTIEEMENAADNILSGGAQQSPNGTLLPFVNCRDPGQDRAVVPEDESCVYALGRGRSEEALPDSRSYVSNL
T1 sequence (P54290 25-944 partner limits assumed, other chains not shown): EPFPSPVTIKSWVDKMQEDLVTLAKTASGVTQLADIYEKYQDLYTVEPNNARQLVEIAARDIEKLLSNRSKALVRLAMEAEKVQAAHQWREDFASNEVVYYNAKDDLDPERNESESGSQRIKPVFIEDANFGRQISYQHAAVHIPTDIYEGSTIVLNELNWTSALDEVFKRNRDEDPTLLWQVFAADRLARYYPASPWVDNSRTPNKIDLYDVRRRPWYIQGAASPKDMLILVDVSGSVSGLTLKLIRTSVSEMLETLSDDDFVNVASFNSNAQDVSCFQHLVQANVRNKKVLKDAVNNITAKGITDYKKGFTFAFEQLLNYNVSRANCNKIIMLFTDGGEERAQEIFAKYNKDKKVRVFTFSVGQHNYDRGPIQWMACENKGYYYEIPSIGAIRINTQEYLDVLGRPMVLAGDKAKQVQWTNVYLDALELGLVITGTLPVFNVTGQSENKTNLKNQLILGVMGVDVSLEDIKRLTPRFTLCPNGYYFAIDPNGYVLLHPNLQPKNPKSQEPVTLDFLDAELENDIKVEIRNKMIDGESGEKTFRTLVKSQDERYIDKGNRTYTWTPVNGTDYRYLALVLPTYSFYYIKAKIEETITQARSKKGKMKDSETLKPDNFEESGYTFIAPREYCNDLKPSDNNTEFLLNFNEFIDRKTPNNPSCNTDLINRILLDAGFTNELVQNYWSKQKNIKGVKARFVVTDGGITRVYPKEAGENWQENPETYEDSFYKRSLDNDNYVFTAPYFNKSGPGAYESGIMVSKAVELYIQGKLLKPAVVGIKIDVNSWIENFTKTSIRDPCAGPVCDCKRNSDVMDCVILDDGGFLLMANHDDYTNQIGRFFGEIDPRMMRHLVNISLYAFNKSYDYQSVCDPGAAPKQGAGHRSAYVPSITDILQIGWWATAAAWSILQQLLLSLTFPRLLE
T1 sequence (P54290 945-1091 partner limits assumed, other chains not shown): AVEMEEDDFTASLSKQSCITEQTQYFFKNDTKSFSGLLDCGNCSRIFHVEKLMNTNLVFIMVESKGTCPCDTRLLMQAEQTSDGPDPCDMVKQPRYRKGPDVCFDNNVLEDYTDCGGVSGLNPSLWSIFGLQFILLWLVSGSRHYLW
The test can be described thus: Binding affinity for PN 200-110 (DHP) binding sites in the rat heart.
Source text: as §1

Molecules are shown by their SMILES.

As for `CO[C@H](COC(=O)C1=C(C)NC(C)=C(C(=O)OC(C)C)C1c1cccc(F)c1F)c1ccccc1` (stereo partly drawn) [Example 21, isopropyl (S)-methoxy-2-phenylethyl 4-(2,3-difluorophenyl)-1,4-dihydro-2,6-dimethylpyridine-3,5-dicarboxylate], in test [1], the Selectivity is on record as 6.0 and the Ki was determined as 13 nM. The Ki in test [2] is 78 nM.
As for `COC(=O)C1=C(C)NC(C)=C(C(=O)OCCN(C)Cc2ccccc2)C1c1cccc([N+](=O)[O-])c1` (stereo not shown) [Nicardipine, nicardipine], in test [1], the Selectivity is recorded as 0.44 and the affinity corresponds to a Ki of 32 nM.
In test [1], `COCCOC(=O)C1=C(C)NC(C)=C(C(=O)OC(C)C)C1c1cccc([N+](=O)[O-])c1` (stereo not shown) [Nimodipine, nimodipine] had a Selectivity of 1.9 and a Ki of 2.4 nM.

Values taken from patent publication US6066655A, “4-phenyl-3-substituted 1,4-dihydropyridine esters” (Bayer Aktiengesellschaft, priority 1993, dated 2000).
